Measurements from PMC12456010, “Structural constraints prevent a bat norovirus from binding to histo-blood group antigen co-factors” (Journal of Virology, 2025).

Key:
GX P domain (NPIH26) = molecular target: T1, GX P domain (NPIH26) (Bat norovirus, UniProt A0A2S1TZT6); test: X-ray co-crystal structure, […] A; type: binding; settings: co-crystallized with 30-60 molar excess; two fucose molecules per P domain dimer; site E332, H334, E349, T433 of one monomer; pH 6.5
T1 construct: gene ORF2; protruding (P) domain of the capsid protein, dimer

GII.27 P domain = molecular target: T2, GII.27 P domain (Norovirus GII, UniProt A0A2H4Y8Z8); test: X-ray co-crystal structure, […] A; type: binding; settings: co-crystallized with 30-60 molar excess; one molecule per dimer, site at dimer interface: N354, R355, D384 of one monomer, K444, G446, Y447 of the other
T2 construct: protruding (P) domain of the capsid protein, dimer

With `C[C@@H]1OC(O)[C@@H](O)[C@H](O)[C@@H]1O` (some centres unmarked) [FUC, fucose] as the compound, how does the “X-ray co-crystal structure, 1.55 A” value (GX P domain (NPIH26)) read?
Its value is “The GX P domain held the fucose molecules with six direct hydrogen bonds”.

`CC(=O)N[C@H]1[C@@H](O[C@H]2[C@@H](O)[C@@H](CO)OC(O)[C@@H]2O[C@@H]2O[C@@H](C)[C@@H](O)[C@@H](O)[C@@H]2O)O[C@H](CO)[C@H](O)[C@@H]1O` (stereo partly drawn) [A-trisaccharide, α-L-fucose-(1-2)-α-D-galactose-(3-1)-2-N-acetyl-α-D-galactosamine] was tested. Which “X-ray co-crystal structure, 1.76 A” value (GII.27 P domain) did it give?
Its value is “a single A-trisaccharide molecule bound to the P domain dimer”.
